Results reported in patent US3987200A, “Method for increasing cardiac contractility” (Eli Lilly and Company, priority 1975, dated 1976).
Counter-ions that a name gives are not always drawn.

Key:
[1] = LD50 in mice; conditions: mouse, in vivo
[2] = tested on: dogs; test: Cardiac and Blood Pressure Effects in dogs (Table I); type: in vivo; conditions: for Contractile Potency ED50 / Contractile Potency ED100: i.v. infusion; for Blood Pressure Change at Effective dose ED50 / Heart Rate Increase at Effective dose ED50 / Blood Pressure Change at Effective dose ED100 / Heart Rate Increase at Effective dose ED100: i.v.

Row | SMILES | LD50 [1] [mg/kg] | Contractile Potency ED50 [2] | Contractile Potency ED100 [2] | Blood Pressure Change at Effective dose ED50 ([2]; at ED50) [mm. Hg.] | Heart Rate Increase at Effective dose ED50 ([2]; at ED50) [Beats/minute] | Blood Pressure Change at Effective dose ED100 ([2]; at ED100) [mm. Hg.] | Heart Rate Increase at Effective dose ED100 ([2]; at ED100) [Beats/minute] | activity on contractile force (in words) ([2]; Table I data) | pressor activity (in words) ([2]; Table I data) | Contractile Potency ED50 ([2]; hydrochloride) [µg/kg/min] | Contractile Potency ED100 ([2]; hydrochloride) [µg/kg/min] | Blood Pressure Change at Effective dose ED50 ([2]; at ED50, hydrochloride) [mm. Hg.] | Heart Rate Increase at Effective dose ED50 ([2]; at ED50, hydrochloride) [Beats/minute] | Blood Pressure Change at Effective dose ED100 ([2]; at ED100, hydrochloride) [mm. Hg.] | Heart Rate Increase at Effective dose ED100 ([2]; at ED100, hydrochloride) [Beats/minute]
1 | CC(Cc1ccc(O)c(O)c1)NCCCc1ccc(O)cc1 (racemic) [3,4-dihydroxy-N-[3-(4-hydroxyphenyl)-n-propyl]-α-methyl-β-phenethylamine hydrobromide] | 82.7 ± 5.72 | – | – | – | – | – | – | – | – | – | – | – | – | – | –
2 | CC(CCc1ccc(O)cc1)NCCc1ccc(O)c(O)c1 (racemic) [dl-, 3,4-dihydroxy-N-[3-(4-hydroxyphenyl)-1-methyl-n-propyl]-β-phenethylamine] | 73.2 ± 3.68 | 3 ± 1 µg/kg/min | 10 ± 3 µg/kg/min | 3 ± 5 | 13 ± 4 | 6 ± 6 | 30 ± 4 | – | – | – | – | – | – | – | –
3 | CC(CCc1ccc(O)cc1)NCCc1ccc(O)c(O)c1 (single isomer, unassigned) [d-, d-3,4-dihydroxy-N-[3-(4-hydroxyphenyl)-1-methyl-n-propyl]-β-phenethylamine] | – | 2.8 ± .3 µg/kg/min | 6.1 ± .4 µg/kg/min | 8 ± 2 | 11 ± 3 | 6 ± 3 | 28 ± 7 | – | – | – | – | – | – | – | –
4 | CC(CCc1ccc(O)cc1)NCCc1ccc(O)c(O)c1 (single isomer, unassigned) [l-, l-3,4-dihydroxy-N-[3-(4-hydroxyphenyl)-1-methyl-n-propyl]-β-phenethylamine hydrochloride] | – | – | – | – | – | – | – | somewhat less active than either the d-isomer or dl-racemate on contractile force | marked pressor activity | 9 ± 2 | 25 ± 5 | 39 ± 3 | 8 ± 5 | 63 ± 4 | 28 ± 9
